Test results reported in patent publication US20260285850A1, “SUBSTITUTED OXAZOLIDINONES AND IMIDAZOLINONES AS HERBICIDES” (FMC CORPORATION, priority 2023, published 2026).

Columns and labels:
Type in all cases: in vivo
[1] = tested on: ryegrass, Italian (italian ryegrass, Lolium multiflorum); experiment: Test A postemergence application, visual injury rating 0-100; settings: 10 days
How it was run: (§1)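 Scale 0–100 (no effect to complete control), visual, versus untreated controls, read 10 days after application. Application: preemergence directed spray onto seeded loam–sand soil, or postemergence to young plants; formulation in non-phytotoxic solvent with surfactant.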

[2] = tested on: green foxtail (Setaria viridis); experiment: as above; settings: 10 days
How it was run: as §1

[3] = tested on: palmer (palmer amaranth, palmer pigweed, Amaranthus palmeri); experiment: as above; settings: 10 days
How it was run: as §1

[4] = tested on: ragweed (common ragweed, Ambrosia artemisiifolia); experiment: as above; settings: 10 days
How it was run: as §1

[5] = tested on: horseweed (Erigeron canadensis); experiment: as above; settings: 10 days
How it was run: as §1

[6] = tested on: galium (catchweed bedstraw, Galium aparine); experiment: as above; settings: 10 days
How it was run: as §1

[7] = tested on: oat, wild (wild oat, Avena fatua); experiment: as above; settings: 10 days
How it was run: as §1

[8] = tested on: blackgrass (Alopecurus myosuroides); experiment: as above; settings: 10 days
How it was run: as §1

soybean (Glycine max) [9] = experiment: as above; settings: 10 days
How it was run: as §1

[10] = tested on: wheat (Triticum aestivum); experiment: as above; settings: 10 days
How it was run: as §1

kochia (Bassia scoparia) [11] = experiment: as above; settings: 10 days
How it was run: as §1

[12] = tested on: barnyardgrass (Echinochloa crus-galli); experiment: as above; settings: 10 days
How it was run: as §1

corn (Zea mays) [13] = experiment: as above; settings: 10 days
How it was run: as §1

[14] = tested on: ryegrass, Italian (italian ryegrass, Lolium multiflorum); experiment: Test A preemergence soil spray, visual injury rating 0-100; settings: 10 days, 0 = no effect, 100 = complete control
How it was run: as §1

[15] = tested on: green foxtail (Setaria viridis); experiment: as above; settings: 10 days, 0 = no effect, 100 = complete control
How it was run: as §1

[16] = tested on: palmer (palmer amaranth, palmer pigweed, Amaranthus palmeri); experiment: as above; settings: 10 days, 0 = no effect, 100 = complete control
How it was run: as §1

[17] = tested on: ragweed (common ragweed, Ambrosia artemisiifolia); experiment: as above; settings: 10 days, 0 = no effect, 100 = complete control
How it was run: as §1

[18] = tested on: oat, wild (wild oat, Avena fatua); experiment: as above; settings: 10 days, 0 = no effect, 100 = complete control
How it was run: as §1

[19] = tested on: blackgrass (Alopecurus myosuroides); experiment: as above; settings: 10 days, 0 = no effect, 100 = complete control
How it was run: as §1

soybean (Glycine max) [20] = experiment: as above; settings: 10 days, 0 = no effect, 100 = complete control
How it was run: as §1

[21] = tested on: wheat (Triticum aestivum); experiment: as above; settings: 10 days, 0 = no effect, 100 = complete control
How it was run: as §1

kochia (Bassia scoparia) [22] = experiment: as above; settings: 10 days, 0 = no effect, 100 = complete control
How it was run: as §1

[23] = tested on: barnyardgrass (Echinochloa crus-galli); experiment: as above; settings: 10 days, 0 = no effect, 100 = complete control
How it was run: as §1

corn (Zea mays) [24] = experiment: as above; settings: 10 days, 0 = no effect, 100 = complete control
How it was run: as §1

rice (Oryza sativa) = experiment: Test B flooded paddy test, visual plant response rating 0-100; settings: 250 g ai/ha, Flood, applied to paddy water, evaluated after 13 days
How it was run: (§2)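 In this flooded assay, 2-leaf seedlings received compound through the water layer, kept at 3 cm over the soil. Plants were held 13 days in a greenhouse and then visually compared with control pots.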

[25] = tested on: ducksalad (Heteranthera limosa); experiment: as above; settings: 250 g ai/ha, Flood, applied to paddy water, evaluated after 13 days
How it was run: as §2

[26] = tested on: barnyardgrass (Echinochloa crusgalli); experiment: as above; settings: 250 g ai/ha, Flood, applied to paddy water, evaluated after 13 days
How it was run: as §2

[27] = tested on: sedge, umbrella (small-flower umbrella sedge, Cyperus difformis); experiment: as above; settings: 250 g ai/ha, Flood, applied to paddy water, evaluated after 13 days
How it was run: as §2

[28] = 31 g ai/ha, postemergence, 0 = no effect, 100 = complete control
[29] = Postemergence, 125 g ai/ha, 0 is no effect, 100 is complete control

With `CC1(C(=O)NC2CC=C(C(=O)OCC(F)(F)F)C2)CN(c2cc(F)cc(F)c2)C(=O)O1` (stereo not shown) [Compound 1] the “Ryegrass, Italian plant response rating (0-100)” value [1, 28] was 80, the “Ryegrass, Italian plant response rating (0 to 100 scale)” value [1, 29] was 80 and the “Foxtail, Green plant response rating (0-100)” value [2, 28] was 90. For the same molecule, the “Foxtail, Green plant response rating (0 to 100 scale)” value [2, 29] was 90, the “Amaranth, Palmer plant response rating (0-100)” value [3, 28] was 90 and the “Amaranth, Palmer / Pigweed, Palmer plant response rating (0 to 100 scale)” value [3, 29] was 90. For the same molecule, the “Ragweed plant response rating (0-100)” value [4, 28] was 60, the “Ragweed plant response rating (0 to 100 scale)” value [4, 29] was 70 and the “Horseweed plant response rating (0-100)” value [5, 28] was 70. For the same molecule, the “Horseweed plant response rating (0 to 100 scale)” value [5, 29] was 80, the “Galium plant response rating (0-100)” value [6, 28] was 90 and the “Galium plant response rating (0 to 100 scale)” value [6, 29] was 90. For the same molecule, the “Oat, Wild plant response rating (0-100)” value [7, 28] was 90, the “Oat, Wild plant response rating (0 to 100 scale)” value [7, 29] was 100 and the “Blackgrass plant response rating (0-100)” value [8, 28] was 90. The “Blackgrass plant response rating (0 to 100 scale)” value [8, 29] was 100, the “Soybean plant response rating (0-100)” value (soybean (Glycine max) [9]; [28]) was 80 and the “Soybean plant response rating (0 to 100 scale)” value (soybean (Glycine max) [9]; [29]) was 90. For the same molecule, the “Wheat plant response rating (0-100)” value [10, 28] was 90, the “Wheat plant response rating (0 to 100 scale)” value [10, 29] was 90 and the “Kochia plant response rating (0-100)” value (kochia (Bassia scoparia) [11]; [28]) was 70. For the same molecule, the “Kochia plant response rating (0 to 100 scale)” value (kochia (Bassia scoparia) [11]; [29]) was 90, the “Barnyardgrass plant response rating (0-100)” value [12, 28] was 100 and the “Barnyardgrass plant response rating (0 to 100 scale)” value [12, 29] was 100. For the same molecule, the “Corn plant response rating (0-100)” value (corn (Zea mays) [13]; [28]) was 100, the “Corn plant response rating (0 to 100 scale)” value (corn (Zea mays) [13]; [29]) was 100 and the “Ryegrass, Italian plant response rating (0-100)” value ([14]; 31 g ai/ha) was 80. For the same molecule, the “Ryegrass, Italian plant response rating (0 to 100 scale)” value ([14]; 125 g ai/ha) was 90, the “Foxtail, Green plant response rating (0-100)” value ([15]; 31 g ai/ha) was 100 and the “Foxtail, Green plant response rating (0 to 100 scale)” value ([15]; 125 g ai/ha) was 100. For the same molecule, the “Amaranth, Palmer plant response rating (0-100)” value ([16]; 31 g ai/ha) was 90, the “Amaranth, Palmer plant response rating (0 to 100 scale)” value ([16]; 125 g ai/ha) was 100 and the “Ragweed plant response rating (0-100)” value ([17]; 31 g ai/ha) was 20. For the same molecule, the “Ragweed plant response rating (0 to 100 scale)” value ([17]; 125 g ai/ha) was 90, the “Oat, Wild plant response rating (0-100)” value ([18]; 31 g ai/ha) was 60 and the “Oat, Wild plant response rating (0 to 100 scale)” value ([18]; 125 g ai/ha) was 80. The “Blackgrass plant response rating (0-100)” value ([19]; 31 g ai/ha) was 60, the “Blackgrass plant response rating (0 to 100 scale)” value ([19]; 125 g ai/ha) was 70 and the “Soybean plant response rating (0-100)” value (soybean (Glycine max) [20]; 31 g ai/ha) was 70. The “Soybean plant response rating (0 to 100 scale)” value (soybean (Glycine max) [20]; 125 g ai/ha) was 90, the “Wheat plant response rating (0-100)” value ([21]; 31 g ai/ha) was 90 and the “Wheat plant response rating (0 to 100 scale)” value ([21]; 125 g ai/ha) was 100. The “Kochia plant response rating (0-100)” value (kochia (Bassia scoparia) [22]; 31 g ai/ha) was 50, the “Kochia plant response rating (0 to 100 scale)” value (kochia (Bassia scoparia) [22]; 125 g ai/ha) was 100 and the “Barnyardgrass plant response rating (0-100)” value ([23]; 31 g ai/ha) was 90. The “Barnyardgrass plant response rating (0 to 100 scale)” value ([23]; 125 g ai/ha) was 100, the “Corn plant response rating (0-100)” value (corn (Zea mays) [24]; 31 g ai/ha) was 60 and the “Corn plant response rating (0 to 100 scale)” value (corn (Zea mays) [24]; 125 g ai/ha) was 90. The “Plant response rating, Rice (0 to 100 scale, 0 is no effect and 100 is complete control)” value (rice (Oryza sativa)) was 80, the “Plant response rating, Ducksalad (0 to 100 scale, 0 is no effect and 100 is complete control)” value [25] was 60 and the “Plant response rating, Barnyardgrass (0 to 100 scale, 0 is no effect and 100 is complete control)” value [26] was 95. For the same molecule, the “Plant response rating, Sedge, Umbrella (0 to 100 scale, 0 is no effect and 100 is complete control)” value [27] was 95.
